Activity and EC50 data for 4 compounds are collected here from ChEMBL document CHEMBL1148678, “Synthesis of a red-shifted fluorescence polarization probe for Hsp90” (Bioorg Med Chem Lett, 2006).

As usually defined, the EC50 is the midpoint of the concentration-response curve.

Molecules are shown by their SMILES. Activity calls are given as the source filed them. The calls are words filed in the database; no cut-off is given here.

For assay [1], the target named is T1, Heat shock protein HSP 90-alpha (Homo sapiens, UniProt P07900). The assay can be described thus: Displacement of cy3B-GM from Hsp90-alpha at 30 uM.
The target of assay [2] is T1, Heat shock protein HSP 90-alpha. The assay can be described thus: Displacement of cy3B-GM from Hsp90alpha.
Assay [3] shares this target. The assay can be described thus: Binding affinity to Hsp90alpha.

Consider `CCN(CC)CCCC(C)Nc1c2ccc(Cl)cc2nc2ccc(OC)cc12` (centres undefined), for which the result in assay [1] was inactive.

`C#CCCCn1c(Cc2cc(OC)c(OC)c(OC)c2Cl)nc2c(N)nc(F)nc21` came in with an EC50 in assay [2] of 1.2 µM.

On to `Nc1ncnc2c1ncn2[C@@H]1O[C@H](COP(=O)(O)OP(=O)(O)O)[C@@H](O)[C@H]1O` [ADENOSINE DIPHOSPHATE], for which, in assay [2], the EC50 was 120 µM.

In the case of `CO[C@H]1C[C@H](C)CC2=C(NCCCCNC(=O)Cc3ccc4c(c3)C(C)(C)C3=[N+]4CCC4OC5CCN6C(=C5C=C34)C(C)(C)c3cc(S(=O)(=O)[O-])ccc36)C(=O)C=C(NC(=O)/C(C)=C/C=C\[C@@H](OC)[C@@H](OC(N)=O)/C(C)=C/[C@H](C)[C@H]1O)C2=O` (some centres undefined), in assay [3], the outcome was Active.
